# From the supplement of paper PMC10307832
# Compound: Cc1ccc(NC(=O)c2ccc(CN3CCN(C)CC3)cc2)cc1Nc1nccc(-c2cccnc2)n1 [Imatinib]
# Test: relative viability (nuclei count vs DMSO), 5 days (fraction); higher = more cells survive
# Procedure, shortened: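 Viability here means nuclei in treated wells divided by nuclei in vehicle wells, reported as the median across plates. Only plates with control CV below 25% and at least one doubling passed. Lung cancer cell lines in 1536-well plates were exposed to five √10-spaced library-drug doses for 5 days and counted from 4× Hoechst images in MetaXpress.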
Cell Line,relative viability (0.02 µM),relative viability (0.06325 µM),relative viability (0.2 µM),relative viability (0.6325 µM),relative viability (2 µM)
NCI-H650,1,0.779,1.02,1.1,0.824
NCI-H2009,1.08,0.728,1.09,1.05,0.977
EKVX,1.03,0.763,1,1.01,–
NCI-H596,–,0.903,1.03,1.01,0.907
NCI-H3122,1.02,–,1.1,1.03,1.08
NCI-H2085,–,0.826,1.01,1.04,1.02
NCI-H441,1.06,0.969,1.2,0.885,–
NCI-H1395,1.13,–,0.897,0.976,0.938
NCI-H1944,0.974,0.706,0.977,0.969,0.951
NCI-H1793,0.939,–,1.11,0.884,0.909
SK-MES-1,–,1.05,1.21,1.01,1.04
NCI-H1651,1.1,0.876,1.03,0.967,0.948
LCLC-97TM1,1.08,–,1.01,1,1.03
LXF-289,1.06,0.998,1.1,1.01,0.976
201T,1.01,–,1.02,0.997,0.965
NCI-H1650,0.919,0.778,1.03,0.922,0.993
NCI-H322M,0.988,1.05,0.99,0.831,0.944
NCI-H2405,–,0.721,1.02,0.927,1
NCI-H838,1.03,1.09,–,1,1.01
NCI-H460,1.1,0.985,1.11,0.925,1
SW 900,0.806,0.712,0.941,0.896,0.855
HCC-78,0.901,0.797,1.06,0.89,0.904
SK-LU-1,1.08,–,1.15,–,1.11
HCC-15,1.03,–,1.1,1.1,–
LC-2-ad,1.04,0.715,0.986,0.973,1

Cell Line,relative viability (0.02 µM),relative viability (0.06325 µM),relative viability (0.2 µM),relative viability (0.6325 µM),relative viability (2 µM)
NCI-H1792,0.946,0.921,1.03,0.948,0.87
COR-L23,1.08,0.916,1.14,1.02,1.1
PC-3 [JPC-3],1.07,–,1.09,1.11,0.972
SW 1573,1.16,0.79,1.13,1.01,1.02
NCI-H1355,1.05,–,1.08,0.978,0.99
NCI-H1703,0.947,0.804,0.56,0.357,0.212
NCI-H358,–,0.865,1.02,0.819,0.947
COR-L 105,1.06,0.979,1,0.891,0.9
NCI-H1666,–,0.958,0.98,1.15,1.01
NCI-H1993,0.89,0.8,1.08,0.886,0.925
Calu-6,1.08,1.08,1.16,1.06,1.02
H3255,1.05,0.749,0.893,1.06,0.899
HARA,1.06,–,1.07,0.993,–
NCI-H661,0.977,0.962,0.994,0.969,0.982
NCI-H2347,1.09,0.825,1.13,1.07,0.977
LU99A,1.03,1.05,0.977,0.964,1.17
A-427,1.04,–,0.989,0.974,0.969
NCI-H2023,1.06,0.78,1.14,–,0.985
NCI-H727,0.818,0.676,0.957,1.08,0.938
NCI-H1299,1.05,–,1.07,1.02,1.04
LK-2,1.05,0.805,1.08,0.678,0.97
BEN,1.09,0.82,0.897,0.871,0.912
NCI-H2228,–,0.927,1.33,–,1.08
PC-14,1.08,0.726,1.17,1,0.953
EBC-1,1.13,0.878,1.17,1.02,–

Cell Line,relative viability (0.02 µM),relative viability (0.06325 µM),relative viability (0.2 µM),relative viability (0.6325 µM),relative viability (2 µM)
LOU-NH91,0.968,1.09,0.966,0.964,0.874
RERF-LC-KJ,1.1,0.884,1.06,0.985,0.953
NCI-H647,0.976,1.05,1.12,0.991,0.962
LCLC-103H,1.02,0.806,1.12,0.964,–
NCI-H1975,1.04,0.951,0.94,0.964,0.94
EPLC-272H,1.16,–,0.884,1.07,0.87
NCI-H520,1.11,1.15,0.907,0.882,0.938
NCI-H1563,–,0.912,1.11,0.963,0.976
ChaGo-K-1,1.02,0.794,1.01,–,0.949
NCI-H1734,1.04,–,1.09,0.996,0.876
NCI-H1755,1.08,0.988,–,0.958,1.01
NCI-H2087,1.11,–,1.13,1.16,–
EMC-BAC-2,1.03,0.952,1.13,1.09,1.01
NCI-H2170,0.987,0.955,1.05,0.961,1.01
NCI-H23,1.06,0.994,1.07,0.967,0.926
HCC-44,0.998,0.945,1.12,–,0.893
HCC-366,0.978,0.856,1.06,1.07,0.988
HCC-827,–,1.04,–,1.05,1.03
NCI-H1915,1.09,–,1.02,1.03,0.967
NCI-H1437,1.11,–,1.12,1.04,0.957
CAL-12T,1.04,0.865,1.13,1.05,0.943
HOP-62,1.15,–,1.2,0.999,0.943
ABC-1,1.11,–,1.07,0.888,0.634
UMC-11,1.03,0.987,1.03,1.1,0.941
NCI-H2126,1.02,0.696,1.08,0.955,0.936
